This note sets out measurements from ChEMBL document CHEMBL1201862, “PubChem BioAssay data set” (2004).

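Results reflect a 48-hour exposure of cells in 96-well plates to compound at five concentrations. GI50 = concentration required for 50% inhibition of growth.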 Activity calls are given as the source filed them. No stated cut-off is given here; in the data, active = GI50 up to about 1.1 µM and inactive = higher. A value given as a limit tells only on which side of the number the result lay.

Common to all, as to experiment: NCI tumour cell line growth inhibition, 48 h
The subject of assay [1] is KM12.
Assay [2] concerns SNB-75.
For assay [3], the system named is SW-620.
Assay [4] has as its system UO-31.
For assay [5], the system named is SF-295.
For assay [6], the system named is UACC-62.
The subject of assay [7] is SN12C.
Assay [8] deals with SF-539.
Assay [9] relates to M14.
The subject of assay [10] is SK-MEL-5.
The test system of assay [11] is SNB-19.
Assay [12] has as its system A498.
Assay [13] deals with T47D.
The test system of assay [14] is OVCAR-8.
In assay [15] the test system is A549.
Assay [16] has as its system SK-OV-3.
Assay [17] relates to IGROV-1.
For assay [18], the system named is EKVX.
The subject of assay [19] is RPMI-8226.
Assay [20] concerns K562.

Regarding `Cc1cc(C)c2c(=N)c3ccccc3n(CCCCCCCCn3c4ccccc4c(=N)c4c(C)cc(C)nc43)c2n1`, the GI50 is 0.358 µM (active) in assay [1]; 0.596 µM (active) in assay [2]; 0.238 µM (active) in assay [3]; 1.46 µM (inactive) in assay [4]; 1.5 µM (inactive) in assay [5]; 1.73 µM (inactive) in assay [6]. Further, the GI50 is 1.59 µM (inactive) in [7]; 1.78 µM (inactive) in [8]; 1.66 µM (inactive) in [9]; 1.82 µM (inactive) in assay [10]; 0.282 µM (active) in [11]; 1.59 µM (inactive) in assay [12]. Further, the GI50 in assay [13] is 1.77 µM (inactive); in [14], 1.59 µM (inactive); in assay [15] it was 1.38 µM (inactive); in [16] it was 1.73 µM (inactive); in [17] it was 1.33 µM (inactive); in assay [18] it was 1.4 µM (inactive). The GI50 is 0.239 µM (active) in assay [19] and 0.19 µM (active) in [20].

As to `Cc1nc2c(-c3ccccc3)[nH]c(C)c2c(=O)o1`, the GI50 is > 100 µM (inactive) in assay [1]; 23.9 µM (inactive) in assay [2]; > 100 µM (inactive) in assay [3]; 4.94 µM (inactive) in [4]; 79.6 µM (inactive) in assay [5]; 23.9 µM (inactive) in [6]. Further, the GI50 was > 100 µM (inactive) in assay [7]; 56.5 µM (inactive) in assay [8]; 53.1 µM (inactive) in [9]; 13.1 µM (inactive) in assay [10]; > 100 µM (inactive) in assay [11]; 22.1 µM (inactive) in assay [12]. The GI50 in assay [13] was 44.2 µM (inactive); in assay [14] it was 41.5 µM (inactive); in [15], 65.2 µM (inactive); in [16], 49.9 µM (inactive); in assay [17] it was 80.5 µM (inactive); in assay [18], > 100 µM (inactive). For the same molecule, the GI50 in assay [19] is 32.7 µM (inactive); in assay [20], 40.1 µM (inactive).

As to `NS(=O)(=O)c1nc(S(=O)(=O)O)c2[nH]cnc2n1`, the GI50 in assay [1], in [2], in assay [3], in [4], in assay [5] and in assay [6] was > 100 µM (inactive) each time. Besides, the GI50 in assay [7], in assay [8], in assay [9], in [10], in assay [11] and in assay [12] was > 100 µM (inactive) in each case. The GI50 in assay [13], in assay [14], in assay [15], in assay [16], in [17] and in assay [18] was > 100 µM (inactive) each time. Besides, the GI50 in assay [19] and in assay [20] was > 100 µM (inactive) each time.

Take `C/C=C(/C)C(=O)O[C@H]1[C@H](O)CC(c2ccc3c(c2O)C(=O)C2=C(O)C4(OC)C(=O)C(C(N)=O)=C(O)[C@H](CC(=O)c5ccccc5O)C4CC2[C@@]3(C)OC)O[C@@H]1C` (stereo not given in full): the GI50 in assay [1] is 0.00647 µM (active); in assay [2], 0.0198 µM (active); in [3], 0.00408 µM (active); in assay [4], 0.041 µM (active); in assay [5], 0.017 µM (active); in [6], 0.01 µM (active). Moreover, the GI50 in assay [7] was 0.00297 µM (active); in [8], 0.00611 µM (active); in [9], 0.0213 µM (active); in assay [10] it was 0.001 µM (active); in [11], 0.00433 µM (active); in assay [12], 0.0422 µM (active). The GI50 is 0.0113 µM (active) in [13]; 0.00475 µM (active) in assay [14]; 0.00311 µM (active) in [15]; 0.00446 µM (active) in assay [16]; 0.00577 µM (active) in assay [17]; 0.0396 µM (active) in [18]. Further, the GI50 in [19] is 0.00785 µM (active); in [20] it was 0.01 µM (active).

Regarding `O=C(O)c1cc2c(cc1S(=O)(=O)O)C1C(C3C2C2(Cl)C(Cl)=C(Cl)C3(Cl)C2(Cl)Cl)C2(Cl)C(Cl)=C(Cl)C1(Cl)C2(Cl)Cl` (stereo not given), the GI50 in [1] is 51.4 µM (inactive); in assay [2] it was 47.6 µM (inactive); in assay [3], 37.2 µM (inactive); in [4], 44.6 µM (inactive); in assay [5], 23.2 µM (inactive); in assay [6], 21.9 µM (inactive). For the same molecule, the GI50 in [7] was 8.71 µM (inactive); in assay [8] it was 25.4 µM (inactive); in assay [9], 37.3 µM (inactive); in [10], 34.7 µM (inactive); in assay [11], 47.4 µM (inactive); in assay [12], 97.1 µM (inactive). Also, the GI50 in assay [13] is 33.2 µM (inactive); in [14], 54.7 µM (inactive); in assay [15], 72.9 µM (inactive); in assay [16] it was 39.9 µM (inactive); in assay [17], 50.4 µM (inactive); in assay [18], 30.2 µM (inactive). The GI50 in assay [19] was 32.6 µM (inactive); in [20], 34.3 µM (inactive).

For `CN(C)C(=S)S` [SODIUM DIMETHYLCARBAMODITHIOATE], the GI50 was > 25.2 µM (inactive) in [1]; > 85.5 µM (inactive) in [2]; > 59.7 µM (inactive) in assay [3]; 56.4 µM (inactive) in assay [4]; > 80.2 µM (inactive) in assay [5]; > 100 µM (inactive) in assay [6]. The GI50 was 80 µM (inactive) in [7]; > 100 µM (inactive) in assay [8]; > 100 µM (inactive) in assay [9]; 4.14 µM (inactive) in assay [10]; > 100 µM (inactive) in assay [11]; > 100 µM (inactive) in [12]. The GI50 is > 100 µM (inactive) in assay [13]; > 52.5 µM (inactive) in assay [14]; > 100 µM (inactive) in assay [15]; > 100 µM (inactive) in [16]; 2.23 µM (inactive) in assay [17]; > 94.6 µM (inactive) in assay [18]. For the same molecule, the GI50 in [19] is 17.5 µM (inactive); in [20], 2.44 µM (inactive).
